Measurements reported in ChEMBL document CHEMBL4346757, “Synthesis and biological evaluation of 7-methoxy-1-(3,4,5-trimethoxyphenyl)-4,5-dihydro-2H-benzo[e]indazoles as new colchicine site inhibitors” (Bioorg Med Chem Lett, 2019).

Assays:
Format in all cases: functional
RXF 393 = experiment: Growth inhibition of human RXF393 cells assessed as cell growth at 0.1 uM after 48 hrs by SRB assay relative to control; conditions: RXF 393, 48 h, read-out: Activity
OVCAR-8 = experiment: Growth inhibition of human OVCAR8 cells assessed as cell growth at 1 uM after 48 hrs by SRB assay relative to control; conditions: OVCAR-8, 48 h, read-out: Activity
U-251 [1] = experiment: Growth inhibition of human U251 cells assessed as cell growth at 0.1 uM after 48 hrs by SRB assay relative to control; conditions: U-251, 48 h, read-out: Activity
SR = experiment: Growth inhibition of human SR cells assessed as cell growth at 0.01 uM after 48 hrs by SRB assay relative to control; conditions: read-out: Activity
K562 [2] = experiment: Growth inhibition of human K562 cells assessed as cell growth at 0.01 uM after 48 hrs by SRB assay relative to control; conditions: K562, 48 h, read-out: Activity
CAKI-1 = experiment: Growth inhibition of human Caki1 cells assessed as cell growth at 1 uM after 48 hrs by SRB assay relative to control; conditions: CAKI-1, 48 h, read-out: Activity
MCF7 = experiment: Cytotoxicity against human MCF7 cells assessed as growth inhibition after 48 hrs by SRB assay; conditions: MCF7, 48 h
NCI-H23 = experiment: Growth inhibition of human NCI-H23 cells assessed as cell growth at 0.1 uM after 48 hrs by SRB assay relative to control; conditions: NCI-H23, 48 h, read-out: Activity
U-251 [3] = experiment: Growth inhibition of human U251 cells assessed as cell growth at 1 uM after 48 hrs by SRB assay relative to control; conditions: U-251, 48 h, read-out: Activity
SK-MEL-5 = experiment: Growth inhibition of human SK-MEL-5 cells assessed as cell growth at 1 uM after 48 hrs by SRB assay relative to control; conditions: SK-MEL-5, 48 h, read-out: Activity
K562 [4] = experiment: Cytotoxicity against human K562 cells assessed as growth inhibition after 48 hrs by SRB assay; conditions: K562, 48 h
IGROV-1 = experiment: Growth inhibition of human IGROV1 cells assessed as cell growth at 100 uM after 48 hrs by SRB assay relative to control; conditions: IGROV-1, 48 h, read-out: Activity
NCI-H322M [5] = experiment: Growth inhibition of human NCI-H322M cells assessed as cell growth at 100 uM after 48 hrs by SRB assay relative to control; conditions: read-out: Activity
OVCAR-3 = experiment: Growth inhibition of human OVCAR3 cells assessed as cell growth at 1 uM after 48 hrs by SRB assay relative to control; conditions: OVCAR-3, 48 h, read-out: Activity
KM12 = experiment: Growth inhibition of human KM12 cells assessed as cell growth at 10 uM after 48 hrs by SRB assay relative to control; conditions: KM12, 48 h, read-out: Activity
Malme-3M [6] = experiment: Growth inhibition of human MALME-3M cells assessed as cell growth at 0.01 uM after 48 hrs by SRB assay relative to control; conditions: read-out: Activity
NCI-H522 = experiment: Cytotoxicity against human NCI-H522 cells assessed as growth inhibition after 48 hrs by SRB assay; conditions: NCI-H522, 48 h
RPMI-8226 = experiment: Growth inhibition of human RPMI8226 cells assessed as cell growth at 0.01 uM after 48 hrs by SRB assay relative to control; conditions: RPMI-8226, 48 h, read-out: Activity
HCT-116 = experiment: Growth inhibition of human HCT116 cells assessed as cell growth at 1 uM after 48 hrs by SRB assay relative to control; conditions: HCT-116, 48 h, read-out: Activity
BT-549 = experiment: Growth inhibition of human BT549 cells assessed as cell growth at 100 uM after 48 hrs by SRB assay relative to control; conditions: BT-549, 48 h, read-out: Activity
Malme-3M [7] = experiment: Growth inhibition of human MALME-3M cells assessed as cell growth at 1 uM after 48 hrs by SRB assay relative to control; conditions: read-out: Activity
SF-295 = experiment: Growth inhibition of human SF295 cells assessed as cell growth at 1 uM after 48 hrs by SRB assay relative to control; conditions: SF-295, 48 h, read-out: Activity
SK-MEL-2 [8] = experiment: Growth inhibition of human SK-MEL-2 cells assessed as cell growth at 100 uM after 48 hrs by SRB assay relative to control; conditions: SK-MEL-2, 48 h, read-out: Activity
U-251 [9] = experiment: Growth inhibition of human U251 cells assessed as cell growth at 100 uM after 48 hrs by SRB assay relative to control; conditions: U-251, 48 h, read-out: Activity
MDA-MB-468 = experiment: Cytotoxicity against human MDA-MB-468 cells assessed as growth inhibition after 48 hrs by SRB assay; conditions: MDA-MB-468, 48 h
OVCAR-4 [10] = experiment: Cytotoxicity against human OVCAR4 cells assessed as growth inhibition after 48 hrs by SRB assay; conditions: OVCAR-4, 48 h
SNB-19 = experiment: Growth inhibition of human SNB19 cells assessed as cell growth at 10 uM after 48 hrs by SRB assay relative to control; conditions: SNB-19, 48 h, read-out: Activity
786-0 = experiment: Growth inhibition of human 786-0 cells assessed as cell growth at 1 uM after 48 hrs by SRB assay relative to control; conditions: 786-0, 48 h, read-out: Activity
OVCAR-4 [11] = experiment: Growth inhibition of human OVCAR4 cells assessed as cell growth at 100 uM after 48 hrs by SRB assay relative to control; conditions: OVCAR-4, 48 h, read-out: Activity
SN12C = experiment: Growth inhibition of human SN12C cells assessed as cell growth at 100 uM after 48 hrs by SRB assay relative to control; conditions: read-out: Activity
SK-MEL-2 [12] = experiment: Growth inhibition of human SK-MEL-2 cells assessed as cell growth at 1 uM after 48 hrs by SRB assay relative to control; conditions: SK-MEL-2, 48 h, read-out: Activity
NCI-H322M [13] = experiment: Growth inhibition of human NCI-H322M cells assessed as cell growth at 0.1 uM after 48 hrs by SRB assay relative to control; conditions: read-out: Activity
[14] = read-out: LC50 (the source's name)
[15] = read-out: pLC50 (the source's name) (converted)

## COc1ccc2c(c1)CCc1n[nH]c(-c3cc(OC)c(OC)c(OC)c3)c1-2
RXF 393
  growth at 0.1 µM: -2%
OVCAR-8
  growth at 1 µM: 10%
U-251 [1]
  growth at 0.1 µM: 10%
SR
  growth at 0.01 µM: 23%
K562 [2]
  growth at 0.01 µM: 19%
CAKI-1
  growth at 1 µM: 22%
MCF7; read-out: GI50
  GI50: < 0.01 µM
MCF7; read-out: LC50
  LC50: > 100 µM
MCF7; read-out: TGI
  TGI: 12.9 µM
MCF7; read-out: pGI50 (converted)
  GI50: < 0.01 µM
MCF7; read-out: pLC50 (converted)
  LC50: > 100 µM
MCF7; read-out: pTGI (converted)
  TGI: 12.9 µM
NCI-H23
  growth at 0.1 µM: 5%
U-251 [3]
  growth at 1 µM: 8%
SK-MEL-5
  growth at 1 µM: -24%
K562 [4]; read-out: GI50
  GI50: < 0.01 µM
K562 [4]; [14]
  CC50: > 100 µM
K562 [4]; read-out: TGI
  TGI: > 100 µM
K562 [4]; read-out: pGI50 (converted)
  GI50: < 0.01 µM
K562 [4]; [15]
  CC50: > 100 µM
K562 [4]; read-out: pTGI
  TGI: > 100 µM
IGROV-1
  growth at 100 µM: -33%
NCI-H322M [5]
  growth at 100 µM: -21%
OVCAR-3
  growth at 1 µM: 17%
KM12
  growth at 10 µM: 6%
Malme-3M [6]
  growth at 0.01 µM: 46%
NCI-H522; read-out: GI50
  GI50: < 0.01 µM
NCI-H522; [14]
  CC50: 46.9 µM
NCI-H522; read-out: TGI
  TGI: < 0.01 µM
NCI-H522; read-out: pGI50 (converted)
  GI50: < 0.01 µM
NCI-H522; [15]
  CC50: 46.8 µM
NCI-H522; read-out: pTGI
  TGI: < 0.01 µM
RPMI-8226
  growth at 0.01 µM: 45%
HCT-116
  growth at 1 µM: 1%
BT-549
  growth at 100 µM: -36%
Malme-3M [7]
  growth at 1 µM: 44%
SF-295
  growth at 1 µM: 5%
SK-MEL-2 [8]
  growth at 100 µM: -51%
U-251 [9]
  growth at 100 µM: -72%
MDA-MB-468; read-out: GI50
  GI50: < 0.01 µM
MDA-MB-468; read-out: LC50
  LC50 (concentration killing 50% of cells): > 100 µM
MDA-MB-468; read-out: TGI
  TGI: < 0.01 µM
MDA-MB-468; read-out: pGI50 (converted)
  GI50: < 0.01 µM
MDA-MB-468; read-out: pLC50 (converted)
  LC50 (concentration killing 50% of cells): > 100 µM
MDA-MB-468; read-out: pTGI
  TGI: < 0.01 µM
OVCAR-4 [10]; read-out: GI50
  GI50: < 0.01 µM
OVCAR-4 [10]; read-out: LC50
  LC50: > 100 µM
OVCAR-4 [10]; read-out: TGI
  TGI: 56.5 µM
OVCAR-4 [10]; read-out: pGI50 (converted)
  GI50: < 0.01 µM
OVCAR-4 [10]; read-out: pLC50 (converted)
  LC50: > 100 µM
OVCAR-4 [10]; read-out: pTGI (converted)
  TGI: 56.2 µM
SNB-19
  growth at 10 µM: 24%
786-0
  growth at 1 µM: 14%
OVCAR-4 [11]
  growth at 100 µM: -12%
SN12C
  growth at 100 µM: -47%
SK-MEL-2 [12]
  growth at 1 µM: 42%
NCI-H322M [13]
  growth at 0.1 µM: 40%
